Laboratory results published in PubChem BioAssay (NCI).
Several values for one entry are separate records, joined by “and”; a condition that tells them apart may be missing. Identical values can stand only once.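 Values below derive from 48-hour exposures of cells grown in 96-well plates, with endpoints linearly interpolated between the two concentrations bracketing the appropriate inhibition level. GI50: concentration for 50% inhibition of growth. The concentration for full growth arrest is given as TGI.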

How the values were obtained:
Test in all cases: NCI anticancer screen, dose series, 48 h
[1] = test system: DU-145 prostate
[2] = test system: HCC-2998 colon
[3] = test system: HCT-15 colon
[4] = test system: IGROV1 ovarian
[5] = test system: KM12 colon
[6] = test system: MOLT-4 leukemia
[7] = test system: NCI-H226 lung
[8] = test system: OVCAR-4 ovarian
[9] = test system: SK-OV-3 ovarian
[10] = test system: U251 CNS

## COc1ccc(S(=O)(=O)NC2=NCCN2C(=S)SN2CCn3c2nsc3=S)cc1OC
[1]
  GI50: 41000 nM
  TGI: > 100000 nM
[2]
  GI50: 24700 nM
  TGI: 44100 nM
[3]
  GI50: 26200 nM
  TGI: > 100000 nM
[4]
  GI50: 23200 nM
  TGI: > 100000 nM
[5]
  GI50: 21200 nM
  TGI: 52000 nM
[6]
  GI50: 27100 nM
  TGI: > 100000 nM
[7]
  GI50: 26500 nM
  TGI: 81500 nM
[8]
  GI50: 16000 nM
  TGI: 34800 nM
[9]
  GI50: 21900 nM
  TGI: 55200 nM
[10]
  GI50: 22300 nM
  TGI: 53400 nM

## CCN1/C(=C/C=C/C=C/c2sc3ccccc3[n+]2CC)Sc2ccccc21
[1]
  GI50: 394 nM
  TGI: 1730 nM
[2]
  GI50: 381 nM
  TGI: 1690 nM
[3]
  GI50: 1220 nM
  TGI: 4700 nM
[4]
  GI50: 503 nM
  TGI: 2140 nM
[5]
  GI50: 378 nM
  TGI: 1400 nM
[6]
  GI50: 234 nM
  TGI: 1020 nM
[7]
  GI50: 344 nM
  TGI: 2990 nM
[8]
  GI50: 261 nM
  TGI: 2510 nM
[9]
  GI50: 359 nM
  TGI: 1130 nM
[10]
  GI50: 234 nM
  TGI: 1540 nM

## Cc1cc(C(=O)N[C@@H](CCC(=O)O)C(=O)O)sc1CC[C@@H]1CNc2nc(N)[nH]c(=O)c2C1
[1]
  GI50: < 10.4 nM
  TGI: > 100000 nM
[2]
  GI50: 75.1 nM
  TGI: > 100000 nM
[3]
  GI50: 42 nM
  TGI: > 100000 nM
[4]
  GI50: 46.3 nM
  TGI: > 100000 nM
[5]
  GI50: 46 nM
  TGI: > 100000 nM
[6]
  GI50: 29.2 nM
  TGI: > 100000 nM
[7]
  GI50: < 24.5 nM
  TGI: > 100000 nM
[8]
  GI50: 23300 nM
  TGI: > 100000 nM
[9]
  GI50: < 20.5 nM
  TGI: > 100000 nM
[10]
  GI50: 27.4 nM
  TGI: > 100000 nM

## Cc1cc(O)c(C2=NN(c3ccc(S(N)(=O)=O)cc3)C(c3ccccc3O)C2)cc1Cl (stereo not drawn)
[1]
  GI50: 2410 nM
  TGI: 4950 nM
[2]
  GI50: 2000 nM
  TGI: 3810 nM
[3]
  GI50: 2390 nM
  TGI: 6250 nM
[4]
  GI50: 1070 nM
  TGI: 5660 nM
[5]
  GI50: 1740 nM
  TGI: 3400 nM
[6]
  GI50: 3110 nM
  TGI: 12200 nM
[7]
  GI50: 1830 nM
  TGI: 6050 nM
[8]
  GI50: 2890 nM
  TGI: 9580 nM
[9]
  GI50: 3860 nM
  TGI: 13200 nM
[10]
  GI50: 2140 nM
  TGI: 5160 nM

## COc1ccccc1-c1ccc2nc(NC(=O)Nc3cc(C(F)(F)F)cc(C(F)(F)F)c3)sc2c1
[1]
  GI50: 4000 nM
  TGI: 14900 nM
[2]
  GI50: 2650 nM
  TGI: 11100 nM
[3]
  GI50: 2550 nM
  TGI: 10600 nM
[4]
  GI50: 2830 nM
  TGI: 10700 nM
[5]
  GI50: 2070 nM
  TGI: 6450 nM
[6]
  GI50: 1580 nM
  TGI: 7240 nM
[7]
  GI50: 2160 nM
  TGI: 5670 nM
[8]
  GI50: 2120 nM
  TGI: 9960 nM
[9]
  GI50: 2920 nM
  TGI: 11400 nM
[10]
  GI50: 2310 nM
  TGI: 10300 nM

## COc1cccc2c1C(=O)c1c(O)c3c(c(O)c1C2=O)C[C@@](O)(C(=O)CO)C[C@@H]3OC1CC(OC(C)=O)C(OC(C)=O)C(C)O1 (stereo partly drawn)
[1]
  GI50: 120 nM
  TGI: 719 nM
[2]
  GI50: 1280 nM
  TGI: 3190 nM
[3]
  GI50: 491 nM
  TGI: 6750 nM
[4]
  TGI: 3910 nM
[5]
  GI50: 549 nM
  TGI: 3740 nM
[6]
  GI50: < 28.2 nM
[7]
  GI50: 193 nM
  TGI: 1160 nM
[8]
  GI50: 2240 nM
  TGI: > 39600 nM
[9]
  GI50: 830 nM
  TGI: 6500 nM
[10]
  GI50: 275 nM
  TGI: 7930 nM

## COc1cccc2c1nc1cccc(OC)c1[n+]2[O-]
[1]
  GI50: 4540 nM
  TGI: 16900 nM
[2]
  GI50: 1500 nM
  TGI: 6980 nM
[3]
  GI50: 2930 nM
  TGI: 12700 nM
[4]
  GI50: 2350 nM
  TGI: 15900 nM
[5]
  GI50: 11600 nM
  TGI: 28400 nM
[6]
  GI50: 460 nM
  TGI: 2620 nM
[7]
  GI50: 10600 nM
  TGI: 23800 nM
[8]
  GI50: 4160 nM
  TGI: 20900 nM
[9]
  GI50: 3190 nM
  TGI: 15700 nM
[10]
  GI50: 6830 nM
  TGI: 21300 nM

## CC(C)(C)CC(C)(C)N(CSc1ccc(Cl)cc1)CSc1ccc(Cl)cc1
[1]
  GI50: 2250 nM
  TGI: 11200 nM
[2]
  GI50: 4620 nM
  TGI: 16400 nM
[3]
  GI50: 2290 nM
  TGI: 11500 nM
[4]
  GI50: 745 nM
  TGI: 2700 nM
[5]
  GI50: 486 nM
  TGI: 4550 nM
[6]
  GI50: 841 nM
  TGI: 5090 nM
[7]
  GI50: 836 nM
  TGI: 2670 nM
[8]
  GI50: 1740 nM
  TGI: 9880 nM
[9]
  GI50: 2680 nM
  TGI: 12400 nM
[10]
  GI50: 415 nM
  TGI: 2090 nM

## COc1ccc(-c2ccc3ncc4c(c3c2)n(-c2ccc(N3CCNCC3)c(C(F)(F)F)c2)c(=O)n4C)cn1
[1]
  GI50: < 10 nM and 4.75 nM
  TGI: 686 nM and 433 nM
[2]
  GI50: < 10 nM and 6.75 nM
  TGI: 1340 nM and 269 nM
[3]
  GI50: < 10.4 nM and 12.7 nM
  TGI: 137 nM and 186 nM
[4]
  GI50: < 10 nM and 1.6 nM
  TGI: 33.2 nM and 16.2 nM
[5]
  GI50: < 10 nM and 11.7 nM
  TGI: 694 nM and 406 nM
[6]
  GI50: < 10 nM and 6.54 nM
  TGI: 186 nM and 143 nM
[7]
  GI50: 8.58 nM
  TGI: 116 nM
[8]
  GI50: < 10 nM and 2.9 nM
  TGI: 20.7 nM and 25.2 nM
[9]
  GI50: < 10 nM and 6 nM
  TGI: 18.3 nM and 46.2 nM
[10]
  GI50: < 10 nM and 8.69 nM
  TGI: 130 nM and 429 nM

## CC(C)(C)OC(=O)N1CC(Cn2cc(C(F)(F)F)c3c(Cl)ncnc32)C1
[1]
  GI50: 1790 nM
  TGI: 3180 nM
[2]
  GI50: 1790 nM
  TGI: 3340 nM
[3]
  GI50: 2000 nM
  TGI: 4400 nM
[4]
  GI50: 1860 nM
  TGI: 3920 nM
[5]
  GI50: 2340 nM
  TGI: 5350 nM
[6]
  GI50: 2390 nM
  TGI: 6280 nM
[7]
  GI50: 18900 nM
  TGI: 41900 nM
[8]
  GI50: 10200 nM
  TGI: 23200 nM
[9]
  GI50: 2910 nM
  TGI: 8210 nM
[10]
  GI50: 1790 nM
  TGI: 3260 nM

## CCc1nc(-n2c(CC)nc3ccccc3c2=O)nc(N)c1-c1ccc(Cl)cc1
[1]
  GI50: > 76500 nM
  TGI: > 100000 nM
[2]
  GI50: 2410 nM
  TGI: > 21000 nM
[3]
  GI50: 8910 nM
  TGI: > 100000 nM
[4]
  GI50: 48500 nM
  TGI: > 100000 nM
[5]
  GI50: 38500 nM
  TGI: > 100000 nM
[6]
  GI50: 73300 nM
  TGI: > 100000 nM
[7]
  GI50: > 100000 nM
  TGI: > 100000 nM
[8]
  GI50: > 100000 nM
  TGI: > 100000 nM
[9]
  GI50: > 100000 nM
  TGI: > 100000 nM
[10]
  GI50: > 100000 nM
  TGI: > 100000 nM
